Results published in patent publication US4731109A, “Herbicidal 2-haloacetanilides” (Monsanto Company, priority 1982, dated 1988).

How the values were obtained:
Assay in all cases: Greenhouse pre-emergence GR15/GR85 selectivity test
Assay type in all cases: in vivo
[1] = tested on: corn
Excerpt: (§1) A good grade of top soil is placed in aluminum pans and compacted to a depth of three-eighths to one-half inch from the top of the pan. On the top of the soil is placed a number of seeds or vegetative propagules of various plant species. The soil required to level fill the pans after seeding or adding vegetative propagules is weighed into a pan. The soil and a known amount of the active ingredient applied in a solvent or as a wettable powder suspension are thoroughly mixed, and used to cover the prepared pans. After treatment, the pans are given an initial overhead irrigation of eater, equivalent to one-fourth inch (0.64 cm) rainfall, then watered by subirrigation as need to give adequate moisture for germination and growth. As an alternative procedure, the overhead irrigation may be omitted. Observations are made about 2-3 weeks after seeding and treatment.
(§2) In the discussion and tables of data below, reference is made to herbicide application rates symbolized as "GR15 " and "GR85 "; these rates are given in kilograms per hectare (kg/ha) which are convertible into pounds per acre (lbs/A) by dividing the kg/ha rate by 1.12.
(§3) A further guide to the effectiveness of a chemical as a selective herbicide is the "selectivity factor" ("SF") for a herbicide in given crops and weeds. The selectivity factor is a measure of the relative degree of crop safety and weed injury and is expressed in terms of the GR15 /GR85 ratio, i.e., the GR15 rate for the crop divided by the GR85 rate for the weed, both rates in kg/ha (lb/A). In the tables below, selectivity factors are shown in parenthesis following the GR85 rate for each weed; the symbol "NS" indicates "non-selective". Marginal or undetermined selectivity is indicated by a dash (--).
(§4) In Table IV pre-emergence herbicidal activity data are presented comparing the relative efficacy of the invention compounds and said prior art compounds as selective herbicides against the resistant and troublesome perennial weeds quackgrass and yellow nutsedge in soybeans and corn, respectively. These weeds are commonly associated with such major crops as corn and soybeans. The test data in Table IV were obtained under identical procedural conditions and represent two replicate runs (except for the compound of Example 9 which was present in one comparative test). The test procedure was the same as described for Tables II and III but modified by the application of an initial overhead irrigation equivalent to 1/4" (0.64 cm) rainfall; subsequent watering was accomplished by subirrigation. "NS" means non-selective within the test limits.
(§5) Additionally, pre-emergence herbicidal data from other tests have established that compounds according to this invention also selectively suppress quackgrass, yellow nutsedge and/or other weeds in one or more of the crops cotton, peanuts, bush beans and/or rape. For example, in Table VI are presented data showing the herbicidal selectivity of the compounds of Examples 1 and 2 against quackgrass in rape and snap beans. Unless otherwise noted; greenhouse tests in Table VI and in other tables below involved herbicide treatments by soil incorporation and an initial overhead irrigation followed by subirrigation as described above.

[2] = tested on: Quackgrass
Excerpt: as §1, with “After treatment, the pans are given an initial overhead irrigation of eater, equivalent to one-fourth inch (0.64 cm) rainfall, then watered by subirrigation as need to give adequate moisture for germination and growth.” left out
as §3
(§6) These weeds are commonly associated with such major crops as corn and soybeans. […] The test procedure was the same as described for Tables II and III but modified by the application of an initial overhead irrigation equivalent to 1/4" (0.64 cm) rainfall; subsequent watering was accomplished by subirrigation. "NS" means non-selective within the test limits.
(§7) Unless otherwise noted; greenhouse tests in Table VI and in other tables below involved herbicide treatments by soil incorporation and an initial overhead irrigation followed by subirrigation as described above.

[3] = tested on: Yellow Nutsedge
Excerpt: as §1, with “After treatment, the pans are given an initial overhead irrigation of eater, equivalent to one-fourth inch (0.64 cm) rainfall, then watered by subirrigation as need to give adequate moisture for germination and growth.” left out
as §3, §6, §7

[4] = tested on: soybeans
Excerpt: as §1, §2, §3, §4, §5

[5] = tested on: cotton; conditions: cotton/yellow nutsedge, average of two replicates
Excerpt: as §1, §2, §3, §5
In one multi-crop test in the greenhouse, the compounds of Examples 1, 9, and 10 were tested against yellow nutsedge in cotton, soybeans, corn and rice; each compound was non-selective with respect to yellow nutsedge in rice. However, markedly high selectivities for yellow nutsedge in cotton, soybeans and corn were shown for each of the compounds in the test; the respective GR15 and GR85 rates for these compounds are shown in Table XII selectivity factors are shown in parenthesis after each crop.

[6] = quackgrass in corn, Table IV, Replicate #2
[7] = yellow nutsedge in corn, Table IV, Replicate #1
[8] = yellow nutsedge in corn, Table IV, Replicate #2
[9] = yellow nutsedge in soybeans, Table IV, Replicate #1
[10] = yellow nutsedge in soybeans, Table IV, Replicate #2
[11] = quackgrass in soybeans, Table V
[12] = yellow nutsedge in corn, Table V
[13] = yellow nutsedge in soybeans, Table V
[14] = in cotton, average of two replicates

Structure (SMILES)	GR15 ([1]; Table IV, Replicate #1)	GR15 ([1]; Table IV, Replicate #2)	GR85 ([2]; Table IV, Replicate #2)	selectivity factor (GR15/GR85) [2, 6]	GR85 ([3]; Table IV, Replicate #1)	GR85 ([3]; Table IV, Replicate #2)	selectivity factor (GR15/GR85) [3, 7]	selectivity factor (GR15/GR85) [3, 8]	selectivity factor (GR15/GR85) [3, 9]	selectivity factor (GR15/GR85) [3, 10]	GR15 ([1]; Table V)	GR85 ([2]; Table V)	selectivity factor (GR15/GR85) ([2]; quackgrass in corn, Table V)	selectivity factor (GR15/GR85) [2, 11]	GR85 ([3]; Table V)	selectivity factor (GR15/GR85) [3, 12]	selectivity factor (GR15/GR85) [3, 13]	other results
CCOCCN(C(=O)CCl)c1ccccc1C(F)(F)F [B, N-(ethoxyethyl)-2'-trifluoromethyl-2-chloroacetanilide, reference compound]	1.2 Kg/Ha	0.37 Kg/Ha	0.64 Kg/Ha	NS (non-selective)	0.47 Kg/Ha	0.43 Kg/Ha	2.5	NS (non-selective)	4	4.5								GR85 ([2]; Table IV, Replicate #1): 0.56 Kg/Ha; selectivity factor (GR15/GR85) ([2]; quackgrass in corn, Table IV, Replicate #1): 2; selectivity factor (GR15/GR85) ([2]; quackgrass in soybeans, Table IV, Replicate #1): 3.5; selectivity factor (GR15/GR85) ([2]; quackgrass in soybeans, Table IV, Replicate #2): 3
COCC(C)N(C(=O)CCl)c1c(C)cccc1C(F)(F)F (stereo not shown) [D, N-(methoxyisopropyl)-2'-trifluoromethyl-6'-methyl-2-chloroacetanilide, reference compound]											2.0 Kg/Ha	1.7 Kg/Ha	1	> 1.5	0.45 Kg/Ha	4	> 6	GR15 ([4]; Table V): > 2.8 Kg/Ha
COCCN(C(=O)CCl)c1ccccc1C(F)(F)F [A, N-(methoxyethyl)-2'-trifluoromethyl-2-chloroacetanilide, reference compound]	> 2.2 Kg/Ha	2.2 Kg/Ha	> 2.2 Kg/Ha	NS (non-selective)	1.2 Kg/Ha	1.0 Kg/Ha	> 2	2	> 2	> 2								GR85 ([2]; Table IV, Replicate #1, extrapolated value): 2.5 Kg/Ha
COCCN(C(=O)CCl)c1c(C)cccc1C(F)(F)F [C, N-(methoxyethyl)-2'-trifluoromethyl-6'-methyl-2-chloroacetanilide, reference compound]											1.3 Kg/Ha	0.28 Kg/Ha	5	> 10	0.28 Kg/Ha	5	> 10	
CCOCCN(C(=O)CCl)c1c(C)cccc1C(F)(F)F [E, N-(ethoxyethyl)-2'-trifluoromethyl-6'-methyl-2-chloroacetanilide, reference compound]											0.67 Kg/Ha	0.28 Kg/Ha	2.5	3	0.22 Kg/Ha	3	4	
C#CCOCN(C(=O)CCl)c1c(C)cccc1C(F)(F)F [Example 8, N--(propargyloxymethyl)-2'-trifluoromethyl-6'-methyl-2-chloroacetanilide]																		GR15 [5]: 2.0 kg/ha; GR15 ([1]; corn/quackgrass): > 2.2 kg/ha; GR15 ([1]; corn/yellow nutsedge): > 2.2 kg/ha; GR15 ([4]; soybeans/quackgrass): > 2.2 kg/ha; GR15 ([4]; soybeans/yellow nutsedge): 2.2 kg/ha; GR85 ([2]; both corn and soybeans): 0.5 kg/ha; S.F. (GR15/GR85) ([2]; in corn): 4.5; S.F. (GR15/GR85) ([2]; in soybeans): 4.5; GR85 ([3]; in corn): 0.95 kg/ha; S.F. (GR15/GR85) ([3]; in corn): 2.5; GR85 [3, 14]: 0.95 kg/ha; S.F. (GR15/GR85) [3, 14]: 2; GR85 ([3]; in soybeans): 0.5 kg/ha; S.F. (GR15/GR85) ([3]; in soybeans): 4.5
